We go through eight compounds from ChEMBL document CHEMBL1201862, “PubChem BioAssay data set” (2004).

Among the test systems are Malme-3M; LOX IMVI; UO-31; OVCAR-4; MDA-MB-231; EKVX; OVCAR-5; UACC-62; MCF7; U-251; A498; COLO 205; PC-3; HOP-62; IGROV-1; HOP-92; MOLT-4; A549; SF-539; HCC 2998.
Holding throughout (experiment): NCI tumour cell line growth inhibition, 48 h

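Protocol summary: plate cells (96-well), add compound at 5 concentrations, incubate 48 h, interpolate endpoints linearly. GI50 is the concentration that inhibits growth by half.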 Activity calls are given as the source filed them. Cut-off read from the data, not from the text of the source: active = GI50 up to about 1.1 µM and inactive = higher.

As for `CC(=O)c1ccc2c3c1[C@H]1O[C@H]1c1cccc(c1-3)[C@@H]1O[C@H]21`, the GI50 in the assay on Malme-3M was 1.37 µM (inactive); with LOX IMVI, 0.31 µM (active); in the assay with UO-31 it was 1.69 µM (inactive); with OVCAR-4, 1.67 µM (inactive); in the assay on MDA-MB-231 it was 2.14 µM (inactive); with EKVX, 1.9 µM (inactive). For the same compound, the GI50 with OVCAR-5 was 1.95 µM (inactive); in the assay on UACC-62, 2.01 µM (inactive); with MCF7, 2.34 µM (inactive); in the assay with U-251, 1.93 µM (inactive); in the assay with A498, 2.37 µM (inactive); in the assay with COLO 205 it was 1.71 µM (inactive). In addition, the GI50 in the assay with PC-3 is 2.47 µM (inactive); with HOP-62, 2.39 µM (inactive); in the assay with IGROV-1 it was 0.112 µM (active); in the assay with HOP-92, 1.57 µM (inactive); in the assay on MOLT-4 it was 3.06 µM (inactive); in the assay with A549 it was 2.92 µM (inactive).

For `Cc1cn(C2C=CC(COP(=O)(OCc3ccc([N+](=O)[O-])o3)N(C)CCCCCl)O2)c(=O)[nH]c1=O` (configuration not stated), the GI50 is 1.79 µM (inactive) in the assay with Malme-3M; 3.58 µM (inactive) in the assay with LOX IMVI; 16.7 µM (inactive) with UO-31; 4.31 µM (inactive) in the assay with OVCAR-4; 12.1 µM (inactive) with MDA-MB-231; 3.72 µM (inactive) with SF-539. Also, the GI50 in the assay with OVCAR-5 is 15.6 µM (inactive); in the assay on UACC-62 it was 4.56 µM (inactive); with MCF7, 4.99 µM (inactive); with U-251, 5.58 µM (inactive); in the assay on COLO 205, 2.4 µM (inactive); in the assay with PC-3, 12.8 µM (inactive). Besides, the GI50 in the assay on HOP-62 is 16 µM (inactive); in the assay with IGROV-1, 3.03 µM (inactive); in the assay with HOP-92 it was 1.95 µM (inactive); in the assay with MOLT-4, 10.1 µM (inactive); with A549 it was 10.9 µM (inactive).

Turning to `Cc1cc2c(O)c(c1)CN(Cc1ccccc1)Cc1cc(C)cc(c1O)CN(Cc1ccccc1)Cc1cc(C)cc(c1O)CN(Cc1ccccc1)C2`, the GI50 in the assay with Malme-3M, in the assay on LOX IMVI, in the assay on UO-31, with OVCAR-4, in the assay with MDA-MB-231 and with HCC 2998 was > 100 µM (inactive) each time. In addition, the GI50 in the assay with SF-539, in the assay with OVCAR-5, in the assay on UACC-62, in the assay with MCF7, with U-251 and in the assay with A498 was > 100 µM (inactive) each time. Also, the GI50 was > 100 µM (inactive) in the assay on COLO 205; > 100 µM (inactive) with PC-3; 46.2 µM (inactive) in the assay on HOP-62; > 100 µM (inactive) in the assay on IGROV-1; > 100 µM (inactive) with MOLT-4; > 100 µM (inactive) with A549.

As for `O/N=C1/C2CC3CC1(c1ccccc1)CC(/C3=N/O)/C2=N\O` (configuration not stated), the GI50 in the assay on Malme-3M, with LOX IMVI, in the assay on UO-31, in the assay with OVCAR-4, in the assay with MDA-MB-231 and in the assay on EKVX was > 100 µM (inactive) throughout. For the same compound, the GI50 with HCC 2998, in the assay with SF-539, with OVCAR-5, in the assay on UACC-62, in the assay with MCF7 and in the assay on U-251 was > 100 µM (inactive) each time. The GI50 with A498 is > 100 µM (inactive); in the assay on COLO 205, > 100 µM (inactive); in the assay on PC-3, 95.9 µM (inactive); in the assay on HOP-62, > 100 µM (inactive); in the assay with MOLT-4, > 100 µM (inactive); with A549, > 100 µM (inactive).

In the case of `CC(/C=C/c1ccccc1)=N\NC(=S)N/N=C(C)/C=C/c1ccccc1`, the GI50 is 10 µM (inactive) in the assay with Malme-3M; 11 µM (inactive) in the assay with LOX IMVI; 4.33 µM (inactive) in the assay with UO-31; 5.4 µM (inactive) in the assay on OVCAR-4; 12.8 µM (inactive) in the assay with MDA-MB-231; 47.6 µM (inactive) in the assay on EKVX. Moreover, the GI50 with HCC 2998 is 20.9 µM (inactive); in the assay on SF-539, 21.1 µM (inactive); in the assay with OVCAR-5 it was 28.5 µM (inactive); in the assay on UACC-62 it was 26.2 µM (inactive); in the assay on MCF7, 6.46 µM (inactive); with U-251, 4.59 µM (inactive). In addition, the GI50 in the assay on A498 was 1.24 µM (inactive); with COLO 205 it was 19 µM (inactive); in the assay on PC-3, 23.9 µM (inactive); in the assay on HOP-62, 28.1 µM (inactive); in the assay on IGROV-1 it was 13.4 µM (inactive); in the assay on MOLT-4 it was 5.93 µM (inactive). Besides, the GI50 in the assay on A549 was 17.9 µM (inactive).

As to `O=P(OCc1ccccc1)(OCc1ccccc1)C(O)/C=C/c1ccccc1` (configuration not stated), the GI50 is 19.6 µM (inactive) in the assay with Malme-3M; 14.9 µM (inactive) in the assay with LOX IMVI; 26.6 µM (inactive) in the assay on UO-31; 21.4 µM (inactive) with OVCAR-4; 22.3 µM (inactive) in the assay on MDA-MB-231; 33.3 µM (inactive) in the assay on EKVX. Further, the GI50 was 30.6 µM (inactive) in the assay with OVCAR-5; 15.8 µM (inactive) in the assay on UACC-62; 27.6 µM (inactive) in the assay with MCF7; 13.1 µM (inactive) with U-251; 17.9 µM (inactive) in the assay with A498; 21.3 µM (inactive) with COLO 205. Moreover, the GI50 in the assay on PC-3 is 28 µM (inactive); in the assay on HOP-62, 21.8 µM (inactive); with IGROV-1, 19.6 µM (inactive); in the assay with HOP-92 it was 19.4 µM (inactive); in the assay on MOLT-4, 21.6 µM (inactive); with A549, 32.9 µM (inactive).

`CC(C)(Cc1ccccc1)N1C(=O)N1C(C)(C)Cc1ccccc1`: the GI50 in the assay on Malme-3M is 23.4 µM (inactive); in the assay with LOX IMVI it was 17.7 µM (inactive); in the assay on UO-31, 14.1 µM (inactive); with OVCAR-4, 34.7 µM (inactive); with MDA-MB-231 it was 28.1 µM (inactive); in the assay on EKVX, 92.7 µM (inactive). For the same compound, the GI50 in the assay with HCC 2998 was > 100 µM (inactive); in the assay on SF-539 it was 33.3 µM (inactive); with OVCAR-5, 19.9 µM (inactive); in the assay with UACC-62, 23.8 µM (inactive); in the assay on MCF7 it was 31.5 µM (inactive); in the assay with U-251 it was 38 µM (inactive). Besides, the GI50 with A498 is > 100 µM (inactive); in the assay on COLO 205 it was 25.6 µM (inactive); in the assay with PC-3, 47.5 µM (inactive); in the assay on IGROV-1 it was 29.9 µM (inactive); in the assay with MOLT-4, 18.7 µM (inactive); with A549 it was 20.1 µM (inactive).

In the case of `CN1CCCCCC(=N\O)/C(=N/O)CCCCC1`, the GI50 in the assay with Malme-3M, in the assay with LOX IMVI, with UO-31, in the assay on MDA-MB-231, in the assay on EKVX and in the assay with SF-539 was > 100 µM (inactive) each time. The GI50 in the assay on OVCAR-5, with MCF7, in the assay on U-251, in the assay with A498, in the assay on PC-3 and in the assay on HOP-62 was > 100 µM (inactive) in each case. Also, the GI50 in the assay on IGROV-1, in the assay on HOP-92, with MOLT-4 and with A549 was > 100 µM (inactive) in each case.
